The test system of one assay is H. zea. Nature of the assay: Feeding disruption assay, CryIAc in Trypan Blue diet (fresh diet). Format: in vivo, Helicoverpa zea. On the procedure:
The blue diet used in the feeding disruption bioassay is an agar based insect meal containing 20 mg of Trypan Blue (Direct Blue 14; Matheson Coleman & Bell, Norwood, Ohio) per 100 ml of standard artificial diet, and containing different concentrations of CryIAc (MVP, Mycogen). Larvae feeding on this colored diet produced blue feces which were easily distinguished by observation from feces derived from other food sources. Assays were conducted in 1-ounce clear plastic cups (Solo Cup Company, Urbana, Ill.; approximately […] in diameter and ¾ inches high) fitted with white cardboard tops, which are routinely used for insect rearing in the inventors' laboratories. The clear plastic allowed for the observation of blue feces without opening the container.
The diagnostic concentration for resistance detection was also investigated for its ability to distinguish Wake susceptible H. virescens from H. zea. In addition, dose response studies were conducted to identify a concentration of Bt that would distinguish resistant YHD2 neonates of H. virescens from H. zea. Dose response studies were duplicated for 25 resistant (HD2) tobacco budworms and 25 bollworms from two generations at different doses of Bt ranging from 0 to 1000 μg CryIAc/ml of blue diet.

Assay [1] relates to H. virescens. Nature of the assay: Modified feeding disruption bioassay on MVP-hydrated meal pads, field strains. As to conditions: for percentage producing 0-2 fecal pellets over 24 h: 0.05 μg MVP per ml diet. Format: in vivo, Heliothis virescens. On the procedure: Trypan Blue (Direct Blue 14; Matheson Coleman and Bell, Norwood, Ohio) was blended with artificial diet, 20 mg dye per 100 ml diet. Blue diet aliquots were dispensed (100 μl per well) into 8-well microtiter plate strips (Nalge Nunc Int., Napersville, Ill.). The blue dye served as a marker of feeding on the assay diet, with larvae feeding on colored diet producing blue feces which were easily distinguished visually from feces derived from other food sources. Microtiter plate strips containing blue diet were frozen at −80° C. and lyophilized (Bench Top 6, Virtis, Gardiner, N.Y.; cold trap=−70° C., ˜200 mTorr, ambient temperature=23° C.) for a minimum of 24 h in order to form hydratable meal pads. Meal pads were stored in the dark in sealed plastic bags with desiccant prior to use.
Meal pads were hydrated with aqueous dilutions of the B. thuringiensis CryIAc δ-endotoxin formulation MVP (Mycogen, San Diego, Calif.) at least 1 h prior to the start of assays. Fresh diet aliquots (100 μl) consistently lost 78-84% of their water content by weight during the lyophilization process. Therefore, meal pads were hydrated with 80 μl of MVP in distilled water (treatments) or distilled water only (controls). The insecticide concentrations referenced throughout this paper are in μg MVP per ml of diet, i.e. the final concentration of insecticide in hydrated diet, which is 80% of the concentration of the solution used to hydrate the meal pads. Strip caps (Nunc) were cut into single caps in order to seal wells of the microtiter plate strips individually, which facilitated observation within wells while not allowing neighboring larvae to escape. In order to reduce condensation within the wells and provide larvae with air, caps were punctured twice with a #3 insect pin. Bioassays were conducted at 27±1° C. with a 14:10 (L:D) cycle, and blue fecal pellets were counted at 24 h. Neonates were used in all assays and were exposed to assay diets within 24 h of hatch. The results from each assay are taken from two replicates of each dose, with each replicate consisting of 24 larvae, one larva per well. Control (no dose) treatments were replicated three times. Dead larvae (defined as no movement for 30 s after prodding with a blunt probe) at the assay endpoint (24 h) were discarded and not included in the reported results. For each surviving larva, the number of fecal pellets produced was recorded. Serial dilutions of the MVP formulation were used for meal pad hydration, with separate dilution series prepared for each replicate.
Following 24 h exposure to diet containing a known concentration of MVP (Mycogen), a surviving larva was designated as a ‘feeder’ if it had produced more than two fecal pellets and as a ‘non-feeder’ otherwise. The cut-off value of two fecal pellets was adopted because this provided the clearest separation between species. Probit analyses were applied to the dichotomized fecal pellet counts in order to compare strains, between and within species, with respect to the feeding disruption response. A probit model was then used to relate the proportion of non-feeders to dose (on a log10 scale). Probit curves were fitted separately for each insect strain, and a NFC50 (non-feeding concentration50; log10 of the MVP concentration resulting in 50% non-feeders) and slope was obtained for H. zea. Also, probit curves were compared across species and among strains within species using PROC GENMOD with LINK=PROBIT (SAS 1993) on the data for all strains combined, and fitting effects for species, strains within species, log10 dose, as well as dose by species and dose by strain within species interactions.
Probit estimates of the proportion of feeders at the diagnostic concentration for each strain were used to predict the properties of an assay involving exposure of a small number, n, of larvae in individual wells for 24 h to diet containing a diagnostic concentration of the MVP formulation (final MVP concentration in diet 0.04 μg/ml). […]

Assay [2] has as its system H. virescens. As to conditions: Gould et al. 1995; cited from earlier work.
The mark [3] stands for this setting: H. zea neonates, 0.032 μg CryIAc/ml diet, 24 hour.

As to “CryIAc: Bacillus thuringiensis CryIAc δ-endotoxin, commercial formulation MVP (Mycogen), >98.0% δ endotoxin”, the “blue fecal pellets produced per larva” value in the assay on H. zea (setting [3]) is on record as not below 7 blue fecal pellets. Also, the “percentage producing ≧15 blue fecal pellets” value in the assay with H. zea (setting [3]) came out at 99%. The “percentage producing no blue feces” value with H. zea (H. zea neonates, 500 μg CryIAc/ml blue diet, 24 hours) stood at 100%. Besides, the “percentage producing 0-2 fecal pellets in 24 h” value in the assay with H. zea (laboratory susceptible H. zea colony, 1000 μg MVP per ml diet) is reported as 98.0%. The “percentage of insects producing >10 fecal pellets” value in the assay on H. virescens [1] (H. virescens field strains pooled, 0.04 μg MVP per ml diet, 24 h) is less than 1%. Also, the “ps, probability of a larva being a feeder, most conservative probit estimate” value in the assay with H. virescens [1] (H. virescens strains, diagnostic concentration 0.04 μg/ml, 24 h) is 0.02. Also, the “percentage producing 0-2 fecal pellets over 24 h” value in the assay on H. virescens [1] (Hv Franklin neonates) is 100%; in the assay with H. virescens [1] (Hv Johnston neonates), 95.5%; in the assay with H. virescens [1] (Hv Quitman neonates) it was 95.5%; in the assay with H. virescens [1] (Hv Washington neonates), 97.7%. In addition, the “feeding response (>2 fecal pellets)” value with H. virescens [1] (Hv Franklin, 0.04 μg MVP per ml diet, 24 h) stood at 2.1%; in the assay with H. virescens [1] (Hv Quitman, 0.04 μg MVP per ml diet, 24 h), 14.9%. Moreover, the “ps, feeding probability” value in the assay on H. virescens [1] (Hv Quitman (south Georgia), 0.04 μg MVP per ml diet, 24 h) was 0.15. The “percentage producing >5 fecal pellets” value in the assay with H. virescens [1] (Hv Quitman neonates, 0.04 μg MVP per ml diet, 24 h) was found to be 2.2%; in the assay on H. virescens [1] (Hv Washington neonates, 0.04 μg MVP per ml diet, 24 h) it was 4.3%. In addition, the “fecal pellets produced per larva (none observed above)” value with H. virescens [1] (all H. virescens field strains, 0.04 μg MVP per ml diet, 24 h) is given as not above 11 fecal pellets. In addition, the “resistance of YHD2 strain to CryIAc compared to the Wake strain” value in the assay with H. virescens [2] was more than 2000 fold.

These data come from patent US6517856B1, “Insecticide resistance assay” (priority 1998, dated 2003).
